{"source": "paper PMC4710668", "about": "“Bioactivation of food genotoxicants 5-hydroxymethylfurfural and furfuryl alcohol by sulfotransferases from human, mouse and rat: a comparative study” (Archives of Toxicology, 2014)", "target": "T1, mSult1e1 (Mus musculus, UniProt P49891)", "T1 construct": "made in house; host or cells: Salmonella typhimurium TA1538 (cytosolic fraction, enzyme not purified)", "T1 sequence (P49891 1-295)": "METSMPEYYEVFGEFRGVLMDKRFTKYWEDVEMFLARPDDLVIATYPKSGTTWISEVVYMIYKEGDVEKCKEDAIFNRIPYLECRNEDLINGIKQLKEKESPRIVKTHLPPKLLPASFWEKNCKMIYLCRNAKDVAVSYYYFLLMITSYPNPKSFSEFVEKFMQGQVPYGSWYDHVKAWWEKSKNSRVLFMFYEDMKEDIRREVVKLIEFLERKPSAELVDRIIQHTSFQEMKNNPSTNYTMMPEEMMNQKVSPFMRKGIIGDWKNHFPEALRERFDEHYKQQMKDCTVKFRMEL", "experiment": "FFA sulfoconjugation assay (N6-MF-A formation with adenosine as scavenger)", "format": "biochemical", "method_in_brief": "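Quadruplicate incubations of FFA with SULT-expressing TA1538 cytosol and 10 mM adenosine, 20 min at 37 °C. Quantitation of N6-MF-A by UPLC-MS/MS with summed MRM signals against [15N5]N6-MF-A. Values were corrected by subtracting duplicate SULT-deficient cytosol controls.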"}
{"compound": "OCc1ccco1", "note": "[FFA, furfuryl alcohol]", "values": [{"measurement": "Rate of N6-MF-A formation", "setting": "0.1 mM FFA", "value": "<18", "unit": "fmol N ^6-MF-A/mg/min"}, {"measurement": "Rate of N6-MF-A formation", "setting": "1 mM FFA", "value": "49.3 ± 1.2", "unit": "fmol N ^6-MF-A/mg/min"}, {"measurement": "Rate of N6-MF-A formation", "setting": "10 mM FFA", "value": "425 ± 3", "unit": "fmol N ^6-MF-A/mg/min"}]}
